Measurements: the CheMixHub viscosity set
± gives the uncertainty stated by the source.

Assay: xn = mol fraction of the nth substance listed

CCC(C)CC(C)C (centres undefined) + C1C[C@@H]2[C@H]3CC[C@H](C3)[C@@H]2C1
viscosity [mPa·s], 100 kPa
Conditions	x2 = 0.1017	x2 = 0.2008	x2 = 0.3005	x2 = 0.4002	x2 = 0.5006	x2 = 0.6001	x2 = 0.7001	x2 = 0.8012	x2 = 0.8999
293.15 K	0.538 ± 0.012	0.616 ± 0.013	0.717 ± 0.016	0.847 ± 0.018	1.007 ± 0.022	1.216 ± 0.026	1.478 ± 0.032	1.84 ± 0.04	2.322 ± 0.051
298.15 K	0.511 ± 0.011	0.582 ± 0.013	0.674 ± 0.015	0.792 ± 0.017	0.937 ± 0.02	1.126 ± 0.024	1.361 ± 0.03	1.685 ± 0.037	2.114 ± 0.046
303.15 K	0.487 ± 0.011	0.552 ± 0.012	0.636 ± 0.014	0.744 ± 0.016	0.876 ± 0.019	1.048 ± 0.023	1.261 ± 0.027	1.552 ± 0.034	1.937 ± 0.042
308.15 K	0.465 ± 0.01	0.524 ± 0.011	0.602 ± 0.013	0.7 ± 0.015	0.822 ± 0.018	0.979 ± 0.021	1.171 ± 0.025	1.435 ± 0.031	1.781 ± 0.039
313.15 K	0.445 ± 0.01	0.5 ± 0.011	0.571 ± 0.012	0.662 ± 0.014	0.772 ± 0.017	0.916 ± 0.02	1.092 ± 0.024	1.331 ± 0.029	1.645 ± 0.036

OCc1ccccc1 + CCCCCC
viscosity [mPa·s], 101.3 kPa
Conditions	303.15 K	313.15 K	323.15 K
x1 = 0.0101	0.303 ± 0.025	0.284 ± 0.024	0.254 ± 0.022
x2 = 0.0312	4.044 ± 0.23	3.013 ± 0.17	2.36 ± 0.14
x2 = 0.0645	3.832 ± 0.22	2.754 ± 0.16	2.173 ± 0.13
x2 = 0.0976	3.35 ± 0.19	2.394 ± 0.14	1.974 ± 0.12
x2 = 0.1313	3.119 ± 0.18	2.256 ± 0.13	1.79 ± 0.11
x2 = 0.1653	2.649 ± 0.15	2.004 ± 0.12	1.616 ± 0.098
x2 = 0.2056	2.328 ± 0.14	1.827 ± 0.11	1.455 ± 0.089
x2 = 0.255	1.972 ± 0.12	1.615 ± 0.098	1.327 ± 0.082
x2 = 0.8792	0.364 ± 0.028	0.335 ± 0.027	0.307 ± 0.025
x2 = 0.955	0.326 ± 0.026	0.302 ± 0.025	0.268 ± 0.023
x2 = 0.9699	0.32 ± 0.026	0.3 ± 0.025	0.262 ± 0.023
x2 = 0.9799	0.312 ± 0.025	0.292 ± 0.024	0.258 ± 0.022

C1CCCC1 + CC(C)CCO
viscosity [mPa·s], 101 kPa
Conditions	298.15 K	308.15 K
x1 = 0.0443	3.482 ± 0.16	2.238 ± 0.11
x1 = 0.0808	3.173 ± 0.14	2.06 ± 0.097
x1 = 0.1182	2.966 ± 0.13	1.962 ± 0.093
x1 = 0.2087	2.37 ± 0.11	1.573 ± 0.075
x1 = 0.3063	1.857 ± 0.087	1.278 ± 0.062
x1 = 0.3959	1.511 ± 0.072	1.09 ± 0.054
x1 = 0.521	1.086 ± 0.053	0.7741 ± 0.04
x1 = 0.616	0.8169 ± 0.042	0.6771 ± 0.036
x1 = 0.7042	0.6669 ± 0.035	0.5329 ± 0.029
x1 = 0.8044	0.5675 ± 0.031	0.4453 ± 0.026
x1 = 0.8984	0.4649 ± 0.026	0.3966 ± 0.024
x1 = 0.9358	0.4361 ± 0.025	0.3784 ± 0.023
x2 = 0.0075	0.4035 ± 0.024	0.353 ± 0.022

NCCO + CCCCCCO
viscosity [mPa·s], 101.3 kPa
Conditions	x1 = 0.1	x1 = 0.2	x1 = 0.3	x1 = 0.4	x1 = 0.5	x1 = 0.6	x1 = 0.7	x1 = 0.8	x1 = 0.9
303.15 K	4.07 ± 0.07	4.48 ± 0.08	5.04 ± 0.09	5.68 ± 0.1	6.54 ± 0.11	7.62 ± 0.13	8.84 ± 0.15	10.4 ± 0.18	12.3 ± 0.22
313.15 K	3.08 ± 0.05	3.34 ± 0.06	3.72 ± 0.06	4.15 ± 0.07	4.7 ± 0.08	5.41 ± 0.09	6.17 ± 0.11	7.18 ± 0.13	8.31 ± 0.15
323.15 K	2.37 ± 0.04	2.57 ± 0.04	2.84 ± 0.05	3.13 ± 0.05	3.51 ± 0.06	3.98 ± 0.07	4.49 ± 0.08	5.16 ± 0.09	5.88 ± 0.1

CC(C)(C)C1CCCCC1 + CCCCCCCCCCCCCCCC
viscosity [mPa·s], 102 kPa
Conditions	x1 = 0.1004	x1 = 0.2003	x1 = 0.3003	x1 = 0.4016	x1 = 0.5003	x1 = 0.6001	x1 = 0.7002	x1 = 0.8001	x1 = 0.8999
293.15 K	3.31 ± 0.03	3.13 ± 0.03	2.95 ± 0.02	2.77 ± 0.02	2.59 ± 0.02	2.41 ± 0.02	2.23 ± 0.02	2.05 ± 0.02	1.87 ± 0.02
303.15 K	2.63 ± 0.02	2.51 ± 0.02	2.37 ± 0.02	2.24 ± 0.02	2.1 ± 0.02	1.97 ± 0.02	1.83 ± 0.02	1.7 ± 0.02	1.56 ± 0.02
313.15 K	2.15 ± 0.02	2.05 ± 0.02	1.95 ± 0.02	1.85 ± 0.02	1.75 ± 0.02	1.64 ± 0.02	1.54 ± 0.02	1.43 ± 0.02	1.32 ± 0.02
323.15 K	1.78 ± 0.02	1.71 ± 0.02	1.63 ± 0.02	1.56 ± 0.02	1.48 ± 0.02	1.39 ± 0.02	1.31 ± 0.02	1.22 ± 0.02	1.14 ± 0.02

C1CCCC1 + CCC(C)O
101 kPa
Conditions	viscosity [mPa·s]
298.15 K, x1 = 0.0967	2.238 ± 0.1
298.15 K, x1 = 0.1932	1.702 ± 0.08
298.15 K, x1 = 0.2298	1.578 ± 0.075
298.15 K, x1 = 0.2524	1.454 ± 0.069
298.15 K, x1 = 0.3078	1.253 ± 0.061
298.15 K, x1 = 0.3627	1.081 ± 0.053
298.15 K, x1 = 0.4215	0.936 ± 0.047
298.15 K, x1 = 0.5078	0.7825 ± 0.04
298.15 K, x1 = 0.5772	0.6742 ± 0.035
298.15 K, x1 = 0.7238	0.5339 ± 0.029
298.15 K, x1 = 0.8256	0.4728 ± 0.027
298.15 K, x1 = 0.9298	0.4297 ± 0.025
308.15 K, x1 = 0.0075	2.095 ± 0.098
308.15 K, x1 = 0.047	1.917 ± 0.091
308.15 K, x1 = 0.0598	1.7 ± 0.081
308.15 K, x1 = 0.0917	1.552 ± 0.075
308.15 K, x1 = 0.107	1.509 ± 0.073
308.15 K, x1 = 0.2217	1.298 ± 0.063
308.15 K, x1 = 0.2626	1.177 ± 0.057
308.15 K, x1 = 0.3099	1.049 ± 0.052
308.15 K, x1 = 0.3653	0.8998 ± 0.045
308.15 K, x1 = 0.4219	0.8068 ± 0.041
308.15 K, x1 = 0.496	0.6842 ± 0.036
308.15 K, x1 = 0.5716	0.5943 ± 0.032
308.15 K, x1 = 0.6554	0.5084 ± 0.028
308.15 K, x1 = 0.7457	0.4481 ± 0.026
308.15 K, x1 = 0.845	0.4249 ± 0.025
308.15 K, x1 = 0.9255	0.3819 ± 0.023
308.15 K, x1 = 0.9753	0.3779 ± 0.023

CCC(=O)CC + CCCCN
303.15 K, 101.33 kPa
Conditions	viscosity [mPa·s]
x2 = 0.1145	0.519 ± 0.014
x2 = 0.2006	0.59 ± 0.016
x2 = 0.3211	0.678 ± 0.019
x2 = 0.417	0.735 ± 0.02
x2 = 0.5421	0.784 ± 0.022
x2 = 0.7264	0.752 ± 0.021
x2 = 0.8234	0.681 ± 0.019
x2 = 0.8922	0.62 ± 0.017

NCCO + C1COCCO1
101 kPa
Conditions	viscosity [mPa·s]
298.15 K, x2 = 0.0597	16.05 ± 0.49
318.15 K, x2 = 0.5716	2.255 ± 0.069
